What all share (assay): inhibition of tumour cell growth, NCI panel, 48 h
The subject of experiment [1] is A549 NSCLC.
The test system of experiment [2] is SNB-19 CNS.
The subject of experiment [3] is HL-60(TB) leukemia.
Experiment [4] has as its system CCRF-CEM leukemia.
The subject of experiment [5] is SF-539 CNS.
The test system of experiment [6] is HCC-2998 colon.
In experiment [7] the test system is RXF 393 renal.
The subject of experiment [8] is COLO 205 colon.

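Step 1: Grow cells in 96-well plates. Step 2: Expose to compound for 48 hours at 5 concentrations. Step 3: Interpolate endpoints linearly; if unreached, use highest concentration. Here, GI50 denotes the concentration required for 50% inhibition of growth. TGI: total growth inhibition.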

Among the data in PubChem BioAssay (NCI) are TGI and GI50 values, retold here.

On to `CCCCCCCCCCCCN(O)C(=O)c1ccccc1`, for which the TGI in experiment [1] was above 100 µM; in experiment [2] it was above 100 µM; in experiment [3], 54.8 µM; in experiment [4] it was above 100 µM; in experiment [5], 63.6 µM; in experiment [6] it was above 100 µM. In experiment [7], this compound gave a TGI above 100 µM.
Regarding `Cn1c2c(c3ccccc31)CCN(CCCCN1CCN(c3cccc(Cl)c3)CC1)C2=O`, the TGI was 70.2 µM in experiment [1]; 42.8 µM in experiment [2]; 18.9 µM in experiment [3]; 11.2 µM in experiment [8]; above 100 µM in experiment [4]; 26.5 µM in experiment [5].
Consider `O=C1C2c3[nH]c4ccccc4c3[C@@H]3CCCCC3C2C(=O)N1c1ccccc1` (stereo partly specified), for which the TGI in experiment [1] is above 100 µM; in experiment [2], above 100 µM; in experiment [3], 47.5 µM; in experiment [8], 33.6 µM; in experiment [4], 80.1 µM; in experiment [6], 36.5 µM. Further, in experiment [7], the TGI was determined as 32.7 µM.
Consider `OC(c1ccccn1)C1CNc2ccccc21` (stereo unspecified), for which the TGI in experiment [1], in experiment [2], in experiment [3], in experiment [8], in experiment [4] and in experiment [5] was above 100 µM each time. Besides, the TGI in experiment [6] and in experiment [7] was above 100 µM each time.
Take `O=C(CC(=O)C1CCOC1=O)C(=O)Nc1ccc(Cl)cc1Cl` (stereo unspecified): the TGI in experiment [1], in experiment [2], in experiment [3], in experiment [8], in experiment [4] and in experiment [5] was above 100 µM in each case. Besides, the TGI in experiment [6] and in experiment [7] was above 100 µM throughout.
Turning to `Cc1ccc(C)c(NC(=O)CCc2nc(=S)[nH][nH]2)c1`, the TGI in experiment [1], in experiment [2], in experiment [8], in experiment [4], in experiment [5] and in experiment [6] was above 100 µM each time. This compound also gave a TGI in experiment [7] above 100 µM.
On to `COC(OC)[C@@H](C)[C@H](O)[C@](C)(O)C1OC(C)(C)OC(C(C)C=C(C)C)C1C` (stereo partly specified), for which the TGI in experiment [1], in experiment [2], in experiment [3], in experiment [8], in experiment [4] and in experiment [5] was above 100 µM in each case. In addition, the TGI in experiment [7] was above 100 µM.
Consider `CC(=O)NNc1nc(C)c(C(/C=C/c2ccc(Cl)cc2)=N/NC(=O)C[N+](C)(C)C)s1`, for which the TGI in experiment [1], in experiment [2], in experiment [3], in experiment [8], in experiment [4] and in experiment [5] was above 100 µM throughout. Also, the TGI in experiment [6] and in experiment [7] was above 100 µM throughout.
As to `COc1cc(-c2cc(=O)c3cc(C)c(C)c(C(=O)O)c3o2)cc(OC)c1OC`, the TGI in experiment [1], in experiment [2], in experiment [8], in experiment [4], in experiment [5] and in experiment [6] was above 100 µM in each case.
As to `COCCOCC(=O)N(CCn1ccc(NC(c2ccccc2)(c2ccccc2)c2ccccc2)nc1=O)CCn1cnc2nc(N)[nH]c(=O)c21`, the TGI in experiment [1], in experiment [3], in experiment [8], in experiment [4], in experiment [5] and in experiment [6] was above 100 µM each time. Besides, the TGI in experiment [7] was above 100 µM.
As for `O=C(O)Cn1c(=O)[nH]c(=O)c2c1ncn2Cc1ccccc1`, the TGI in experiment [1], in experiment [2], in experiment [8], in experiment [4] and in experiment [5] was above 100 µM each time.
Turning to `Cc1nc(Nc2ccc([N+](=O)[O-])cc2)sc1C(/C=C/c1ccc(N(C)C)cc1)=N/NC(=O)c1ccccc1`, the TGI in experiment [1], in experiment [2], in experiment [3], in experiment [8], in experiment [4] and in experiment [5] was above 100 µM throughout. In addition, the TGI in experiment [6] and in experiment [7] was above 100 µM in each case.
In the case of `CC(C)(C)C(=O)O[C@@H]1COC2C(O)COC21` (stereo partly specified), the TGI in experiment [1], in experiment [2], in experiment [3], in experiment [8], in experiment [4] and in experiment [5] was above 100 µM throughout. In addition, the TGI in experiment [6] and in experiment [7] was above 100 µM in each case.
As for `CCC(C(=O)[O-])C(=O)[O-].CCC(C(=O)[O-])C(=O)[O-].N.N.NCCCCCCN.[Pt+4].[Pt+4]`, the GI50 in experiment [1] is 10.8 µM; in experiment [2], 10.3 µM; in experiment [3] it was 1.68 µM; in experiment [8] it was 0.883 µM; in experiment [4], 1.1 µM; in experiment [5], 10.4 µM. For the same compound, the GI50 was 8.29 µM in experiment [6] and 4.49 µM in experiment [7]. Further, the TGI amounted to 24.1 µM in experiment [1]; 21.9 µM in experiment [2]; 4.63 µM in experiment [3]; 1.66 µM in experiment [8]; 2.87 µM in experiment [4]; 21.7 µM in experiment [5]. Further, the values for the TGI in experiment [6] and in experiment [7] were 15.8 µM and 10.1 µM, respectively.
As to `CC1=C(c2cc(C(=O)Nc3cccc(C(F)(F)F)c3)ncn2)Sc2ccccc2N1`, the TGI in experiment [1], in experiment [2], in experiment [3], in experiment [8], in experiment [4] and in experiment [5] was above 100 µM throughout.
On to `Cc1cc(C)c(S(=O)(=O)ONC(=O)OC(C)(C)C)c(C)c1`, for which the TGI in experiment [1], in experiment [2], in experiment [3], in experiment [8], in experiment [4] and in experiment [5] was above 100 µM throughout. Besides, the TGI in experiment [6] and in experiment [7] was above 100 µM in each case.
For `O=C(NO)C(=O)Nc1ccc(Cl)cc1[N+](=O)[O-]`, the TGI in experiment [1], in experiment [2], in experiment [3], in experiment [8], in experiment [4] and in experiment [5] was above 100 µM in each case. The TGI in experiment [6] and in experiment [7] was above 100 µM in each case.
Take `CC(=O)[O-].O=C([CH-]C(=O)c1ccccc1)c1ccccc1.O=C([CH-]C(=O)c1ccccc1)c1ccccc1.[Y+3]`: the GI50 in experiment [1] was 10.3 µM; in experiment [2], 6.17 µM; in experiment [3], 2.44 µM; in experiment [8], 8.61 µM; in experiment [5], 8.67 µM; in experiment [6], 5.72 µM. Further, the TGI in experiment [1] stood at 34.3 µM; in experiment [2], 64.7 µM; in experiment [3], 10.8 µM; in experiment [8] it was 22.1 µM; in experiment [5], 37 µM; in experiment [6] it was 19.7 µM.
Take `COC12CC(=O)C(C(C)=O)=C(O)C1(C)c1c(OC(C)=O)c(C)c(O)c(C(C)=O)c1O2` (stereo unspecified): the TGI in experiment [1] was above 100 µM; in experiment [2], above 100 µM; in experiment [3], 42.5 µM; in experiment [4], 66.8 µM; in experiment [5] it was above 100 µM; in experiment [6], 84 µM. In experiment [7], this compound returned a TGI of 62.5 µM.
Take `O=C([O-])c1ccc(C(=O)[O-])cc1.O=C([O-])c1ccc(C(=O)[O-])cc1.[Mo+2].[Mo+2]`: the GI50 in experiment [1], in experiment [2], in experiment [3], in experiment [8], in experiment [4] and in experiment [5] was above 100 µM throughout. The GI50 in experiment [6] and in experiment [7] was above 100 µM throughout. Moreover, the TGI in experiment [1], in experiment [2], in experiment [3], in experiment [8], in experiment [4] and in experiment [5] was above 100 µM each time. The TGI in experiment [6] and in experiment [7] was above 100 µM throughout.
In the case of `N#CC1(C=O)c2ccccc2C=CN1C(=O)c1ccccc1` (stereo unspecified), the TGI is above 100 µM in experiment [1]; above 100 µM in experiment [2]; 45.9 µM in experiment [3]; above 100 µM in experiment [8]; 78.4 µM in experiment [4]; above 100 µM in experiment [6]. In experiment [7], this compound displayed a TGI of 53.8 µM.
With `CCOC(=O)NC(=O)c1cn(CCN2CCN(C(=O)CCCCCCCCCCNc3ncnc4nc[nH]c34)CC2)c(=O)[nH]c1=O`, the TGI in experiment [1], in experiment [2], in experiment [3], in experiment [8], in experiment [4] and in experiment [5] was above 100 µM throughout. Besides, the TGI in experiment [6] and in experiment [7] was above 100 µM each time.
Regarding `O=C(NNC(=O)c1cc(/C=C/c2cccc([N+](=O)[O-])c2)[nH]c(=S)n1)Nc1ccc(Cl)cc1`, the TGI was above 100 µM in experiment [1]; 84.1 µM in experiment [3]; 37.2 µM in experiment [8]; 51.2 µM in experiment [4]; above 100 µM in experiment [6]; above 100 µM in experiment [7].
